# Measurements reported in patent US20210009673A1, “METHODS FOR REGULATING BREAST CANCERS” (priority 2018, published 2021).
# No end group written: not given here.
# Key:
# ALK = ALK activation in MDA-MB-231 cells stably transfected with dominant negative PTN (anti-ALK phosphotyrosine 1586/1604 Western blot); type: cell-based, human; conditions: cells expressing dominant negative PTN vs empty vector
# Description: FIG. 18: FIG. 18 illustrates: that a dominant negative PTN blocks ALK activation. MDA-MB-231 cells were transfected with an empty vector or cDNA encoding a dominant negative PTN 1-40. Cell lysates were prepared and analyzed in Western blots probed with anti-phospho-ALK tyrosine 1586/1604 (left two lanes) or separately with anti-ALK antibodies (right two lanes). Arrows point full length ALK (200 kDa) and activated ALK phosphotyrosines 1586/1604.
# To test whether ALK is activated through the PTN/RPTPβ/ζ signaling pathway in MDA-MB-231 cells, lysates from MDA-MB-231 cells, stably transfected with dominant negative PTN, were first analyzed in Western blots probed with anti-ALK and with anti-ALK phosphotyrosine 1586/1604 antibodies specific for activated ALK (Bai, Dieter et al. 1998, Mol Cell Biol 18(12): 6951-61). Anti-ALK phosphotyrosines 1586/1604 immunoreactive proteins were only identified in lysates from MDA-MB-231 empty vector cells, consistent with results above and supporting ALK is activated in cells with an activated PTN/RPTPβ/ζ signaling pathway.
# The vector pcDNA3.1/PTN1-40 was constructed by inserting the cDNA fragment encoding residues −32 to 40 of human PTN protein into XbaI and BamHI of pcDNA3.1/myc-his/hygro vector (Invitrogen).
# [1] = test system: MMTV-PyMT mouse breast cancers; assay: breast cancer progression in MMTV-PyMT-PTN 1-40 bi-transgenic mice; type: in vivo
# Excerpt: The MMTV LTP promoter and human cDNA encoding PTN 1-40 (residue −32 to residue 40) was amplified using PCR from pcDNA3.1-Ptn (constructed by our laboratory). After restriction enzyme digestion, MMTV LTR and Ptn 1-40 cDNA were inserted into EcoR V, Not I and EcoR I site of pIRES-EGFP (BD clontech). The sequence of the final transgene construction (MMTV-PTN-IRES-EGFP) was verified by nucleotide sequencing. The transgene construction was freed of the bacterial sequences by digestion with EcoR V and Xho I, producing a 4.0-kb linear DNA fragment. The 4.0-kb linear DNA that was injected into the fertilized eggs of FVB mice consisted of the MMTV-LTR, PTN 1-40 cDNA, IRES (internal ribosomal entry site), EGFP cDNA, SV40 poly-adenylation sequences. Tail DNA from weaning mice derived from the transgene-injected eggs was analyzed by PCR. The mice were housed in animal facility of The Scripps Research Institute and were maintained according to NIH guidelines for the Care and Use of Laboratory Animals.
# FVB/N-Tg(MMTV-PyVT)634Mul/J transgenic mice were purchased from Jackson laboratory. They develop spontaneous metastatic mammary carcinomas and have been described in before. […] Transgenic animals were genotyped using PCR analysis of genomic DNA obtained from tails. When possible, litter mates with both genotypes were used in the same experiment.
# Mice were examined daily seeking mammary tumors by eye examination and finger palpation after 5 weeks of age. The tumors fully formed on the mammary glands were excised and weighed in 12-14 weeks old mice depending on the tumor size in bi-transgenic mice. Tumor length (L) and width (W) were measured 3 times a week using calipers. Tumor volume was estimated using the formula (L×W2)/2. Total wet tumor weight was weighed by scale when the tumors were excised from sacrificed mice.
# The tumor tissue excised from euthanized animals was fixed in 10% buffered formalin and embedded in paraffin. The specimens were sectioned, stained with H&E, and Masson trichrome stain for collagen fibers.
# Tumor tissue was fixed by 4% paraformaldehyde in phosphate-buffered saline (PBS). After PBS rinse, the tissues were cryoprotected with 30% sucrose in PBS at […] overnight, then infiltrated with a mixture of 1 parts 30% sucrose phosphate buffer to 1 part Histo Prep™ Frozen tissue embedding media (Fisher Scientific) for ½ hour at room temperature before infiltration with 100% Histo Prep™ and freezing. Cryosections ([…]) were cut and immunohistochemistry was performed using rat anti-mouse CD31 (PECAM-1. BD Pharmingen) antibodies. IMD (number of vessels/mm2) was obtained by counting CD31+ vessels in 10 random fields at ×200 magnification.
# Reverse transcription was done using […] total RNA in the presence of 50 ng random hexamers using Ominscipt kit (Qiagen) following manufacturer's recommendations. Real time PCR was done using ICycler (BIORAD). The amplification conditions were: one cycle of 95° C.°, 3 min followed by 40 cycles of 95 C°, 30 sec and 60 C°, 15 sec. GAPDH was used as internal control. The fold changes relative to GAPDH was calculated using the formula: Fold Change=2 L (Ct Target1-CtTarget2)/2 L (Ct GAPDH1-CtGAPDH2) Where: Ct is the threshold of cycle number. Target is the gene measured. Number 1 and 2 represent different samples.
# [2] = test system: MDA-MB-231 cell xenograft; conditions: ectopic expression; Zhang, Zhong et al. 1997; cited from earlier work
substance,measurement,setting,value
"dominant negative PTN: mutant PTN (residues 1-40) forming mixed disulfide linked heterodimers with wild-type PTN; expressed from cDNA or transgene (GKKEKPEKKVKKSDCGEWQWSVCVPTSGDCGLGTREGTRT; also: forms mixed disulfide linked heterodimers with wild-type PTN; UniProt P21246 33-72, looked up, fragment)",anti-ALK phosphotyrosines 1586/1604 immunoreactive proteins,ALK,essentially non-identifiable
same,percentage area of adenoma/MIN,"[1]; 13-week mice, 2% in MMTV-PyMT, p=0.017",12%
same,percentage area occupied by early carcinoma,"[1]; 13-week mice, 20% in MMTV-PyMT, p=0.045",41%
same,percentage area occupied by later carcinoma,"[1]; 13-week mice, 78% in MMTV-PyMT, P=0.024",about 45%
same,foci of scirrhous carcinoma,[1]; MMTV-PyMT-PTN 1-40 bi-transgenic mouse breast cancers,not seen
same,average intratumor microvessel density (IMD),"[1]; about 30 in MMTV-PyMT, P<0.05",about 18 blood vessels/mm2
same,tropoelastin and protocollagen mRNA levels (RT-PCR),[1]; compared with MMTV-PyMT mice,not statistically different
same,activated fibroblasts in breast cancers,[1]; compared with MMTV-PyMT-Ptn and MMTV-PyMT mice,marked reduction
same,MDA-MB-231 cell xenograft growth in nude mice,[2],prevented MDA-MB-231 cell xenograft growth
